Experimental findings from article PMC5333395, “Assessing histone demethylase inhibitors in cells: lessons learned” (Epigenetics & Chromatin, 2017) are described below.

Assay in all cases: AlphaScreen in vitro demethylase assay
Holding throughout (assay type): biochemical
(Bead proximity is the source of the signal in Alpha formats.)

One test concerns the target T1, KDM4A (Homo sapiens, UniProt O75164).
T1 sequence (O75164 1-1064): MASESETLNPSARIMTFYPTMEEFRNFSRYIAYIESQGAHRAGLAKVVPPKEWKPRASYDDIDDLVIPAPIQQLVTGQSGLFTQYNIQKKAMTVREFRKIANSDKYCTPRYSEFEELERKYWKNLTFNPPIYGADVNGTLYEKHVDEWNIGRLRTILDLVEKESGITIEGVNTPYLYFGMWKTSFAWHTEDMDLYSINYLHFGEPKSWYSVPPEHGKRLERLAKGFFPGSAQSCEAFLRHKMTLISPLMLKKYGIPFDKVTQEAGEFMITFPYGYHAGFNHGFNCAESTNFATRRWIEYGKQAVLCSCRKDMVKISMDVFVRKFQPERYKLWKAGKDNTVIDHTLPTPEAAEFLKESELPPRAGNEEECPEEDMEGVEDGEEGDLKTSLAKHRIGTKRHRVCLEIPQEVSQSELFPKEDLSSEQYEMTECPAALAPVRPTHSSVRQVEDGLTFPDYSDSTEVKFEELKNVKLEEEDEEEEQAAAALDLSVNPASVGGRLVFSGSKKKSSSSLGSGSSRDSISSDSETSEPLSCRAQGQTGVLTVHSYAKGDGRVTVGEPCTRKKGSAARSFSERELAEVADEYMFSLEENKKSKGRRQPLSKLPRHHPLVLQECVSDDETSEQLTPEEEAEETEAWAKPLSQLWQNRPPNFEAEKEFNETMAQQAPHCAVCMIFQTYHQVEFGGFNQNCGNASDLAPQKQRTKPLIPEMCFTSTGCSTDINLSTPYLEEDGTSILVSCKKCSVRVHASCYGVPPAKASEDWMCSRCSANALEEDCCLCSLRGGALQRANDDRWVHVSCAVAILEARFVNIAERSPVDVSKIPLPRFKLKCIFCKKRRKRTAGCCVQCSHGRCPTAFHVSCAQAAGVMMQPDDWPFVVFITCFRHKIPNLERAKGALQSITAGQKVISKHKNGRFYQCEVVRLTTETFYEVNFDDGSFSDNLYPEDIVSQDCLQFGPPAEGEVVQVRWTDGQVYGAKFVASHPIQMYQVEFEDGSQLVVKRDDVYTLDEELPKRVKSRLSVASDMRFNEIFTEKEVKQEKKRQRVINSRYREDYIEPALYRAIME
To be noted: IC50 ± SD (number of replicates). The method, then:
(§1) IC50 values were determined as previously described. The following amendments were made to the protocol for carrying out 2-OG competition assays.

For another test, the target named is KDM6B (Homo sapiens, UniProt O15054). To be noted: AlphaScreen; IC50 ± SD (number of replicates); read-out: KDM6B IC50, in vitro. Here is the method: as §1
Chain of KDM6B (O15054 whole entry): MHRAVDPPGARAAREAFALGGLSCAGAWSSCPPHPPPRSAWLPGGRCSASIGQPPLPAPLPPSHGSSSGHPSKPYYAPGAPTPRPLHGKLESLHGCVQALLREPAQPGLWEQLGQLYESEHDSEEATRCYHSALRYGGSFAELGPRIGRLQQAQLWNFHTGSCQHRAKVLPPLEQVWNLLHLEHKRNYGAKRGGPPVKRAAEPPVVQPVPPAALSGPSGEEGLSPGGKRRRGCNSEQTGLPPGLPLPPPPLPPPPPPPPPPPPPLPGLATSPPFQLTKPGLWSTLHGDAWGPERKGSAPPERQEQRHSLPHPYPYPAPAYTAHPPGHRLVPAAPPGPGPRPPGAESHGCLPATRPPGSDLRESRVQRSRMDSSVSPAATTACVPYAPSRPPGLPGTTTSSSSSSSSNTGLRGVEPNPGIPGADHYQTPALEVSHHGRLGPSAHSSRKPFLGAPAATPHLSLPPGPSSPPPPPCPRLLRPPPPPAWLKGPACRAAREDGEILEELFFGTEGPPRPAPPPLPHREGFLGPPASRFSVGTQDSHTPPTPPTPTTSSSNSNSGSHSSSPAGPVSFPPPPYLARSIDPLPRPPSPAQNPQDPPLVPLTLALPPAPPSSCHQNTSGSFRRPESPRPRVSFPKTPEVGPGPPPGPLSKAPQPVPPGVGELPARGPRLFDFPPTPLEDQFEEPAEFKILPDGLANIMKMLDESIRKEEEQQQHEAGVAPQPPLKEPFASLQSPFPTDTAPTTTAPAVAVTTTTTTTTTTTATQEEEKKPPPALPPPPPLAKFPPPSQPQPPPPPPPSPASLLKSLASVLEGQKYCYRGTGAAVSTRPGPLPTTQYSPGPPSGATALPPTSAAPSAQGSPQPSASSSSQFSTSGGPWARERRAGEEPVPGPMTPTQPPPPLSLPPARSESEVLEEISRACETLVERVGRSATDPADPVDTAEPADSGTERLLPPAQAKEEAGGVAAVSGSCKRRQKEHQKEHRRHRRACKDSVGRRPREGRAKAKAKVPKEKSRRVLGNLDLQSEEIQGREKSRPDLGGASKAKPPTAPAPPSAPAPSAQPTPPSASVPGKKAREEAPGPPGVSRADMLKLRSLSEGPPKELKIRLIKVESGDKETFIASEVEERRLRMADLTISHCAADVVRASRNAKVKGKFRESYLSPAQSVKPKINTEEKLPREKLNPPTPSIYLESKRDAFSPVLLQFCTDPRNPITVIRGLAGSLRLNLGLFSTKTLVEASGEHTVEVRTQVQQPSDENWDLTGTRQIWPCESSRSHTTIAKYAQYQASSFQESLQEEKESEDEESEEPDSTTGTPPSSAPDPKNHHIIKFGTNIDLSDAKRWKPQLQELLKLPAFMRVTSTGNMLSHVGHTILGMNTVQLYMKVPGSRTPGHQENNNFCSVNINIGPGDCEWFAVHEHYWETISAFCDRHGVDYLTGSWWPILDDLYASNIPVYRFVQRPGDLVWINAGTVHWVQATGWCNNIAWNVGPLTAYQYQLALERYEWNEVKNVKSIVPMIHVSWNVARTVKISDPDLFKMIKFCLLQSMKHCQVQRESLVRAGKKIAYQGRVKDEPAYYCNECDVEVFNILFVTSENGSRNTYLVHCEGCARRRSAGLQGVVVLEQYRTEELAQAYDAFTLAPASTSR
The next test addresses T2, KDM4C (Homo sapiens, UniProt Q9H3R0).
T2 sequence (Q9H3R0 1-1056): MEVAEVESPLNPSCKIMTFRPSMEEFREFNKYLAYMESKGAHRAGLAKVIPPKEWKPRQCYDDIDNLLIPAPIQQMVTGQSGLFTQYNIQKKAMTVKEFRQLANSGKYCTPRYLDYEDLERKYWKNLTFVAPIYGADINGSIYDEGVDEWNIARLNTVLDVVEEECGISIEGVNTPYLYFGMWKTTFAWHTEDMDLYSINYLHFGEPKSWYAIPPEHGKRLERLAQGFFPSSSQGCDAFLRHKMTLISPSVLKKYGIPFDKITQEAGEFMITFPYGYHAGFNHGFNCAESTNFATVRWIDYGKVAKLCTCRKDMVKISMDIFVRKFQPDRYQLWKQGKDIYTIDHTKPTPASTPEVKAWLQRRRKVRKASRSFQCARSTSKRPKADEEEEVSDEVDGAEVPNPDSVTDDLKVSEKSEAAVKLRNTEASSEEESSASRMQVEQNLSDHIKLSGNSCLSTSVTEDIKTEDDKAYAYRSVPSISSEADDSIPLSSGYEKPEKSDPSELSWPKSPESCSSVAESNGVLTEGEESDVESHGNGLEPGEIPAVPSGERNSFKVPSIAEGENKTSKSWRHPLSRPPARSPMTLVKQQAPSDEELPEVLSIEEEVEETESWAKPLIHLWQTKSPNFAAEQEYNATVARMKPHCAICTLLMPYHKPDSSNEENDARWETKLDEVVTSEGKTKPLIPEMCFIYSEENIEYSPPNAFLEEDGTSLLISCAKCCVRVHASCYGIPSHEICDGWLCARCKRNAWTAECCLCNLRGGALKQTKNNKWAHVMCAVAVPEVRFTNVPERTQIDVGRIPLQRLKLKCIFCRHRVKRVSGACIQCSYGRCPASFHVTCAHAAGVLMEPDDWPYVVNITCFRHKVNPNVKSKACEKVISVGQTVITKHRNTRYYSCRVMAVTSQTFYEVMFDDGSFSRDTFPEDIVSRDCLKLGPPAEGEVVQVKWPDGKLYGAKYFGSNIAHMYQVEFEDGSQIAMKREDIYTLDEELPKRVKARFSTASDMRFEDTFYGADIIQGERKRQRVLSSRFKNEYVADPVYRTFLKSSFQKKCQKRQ
To be noted: AlphaScreen; IC50 ± SD (number of replicates); read-out: KDM4C IC50, in vitro. The method, then: as §1

Turning to CPI-455, the figures for the IC50 at KDM4A, at KDM6B and on KDM4C were 31 µM, over 100 µM and 11 ± 2.3 µM, respectively.

Consider `CCOC(=O)c1ccnc(CNCC(=O)N(CC)CCN(C)C)c1` [KDOAM-21], for which the values for the IC50 against KDM4A, at KDM6B and on KDM4C were 11 ± 4.5 µM, 11 ± 4.6 µM and 2.8 ± 1.3 µM, respectively.

`O=c1[nH]cnc2c(-n3cc(CCN4CCC(c5cccc(Cl)c5)CC4)cn3)cccc12` [CCT366293, 8-(4-(2-(4-(3-Chlorophenyl)piperidin-1-yl)ethyl)-1H-pyrazol-1-yl)quinazolin-4(3H)-one]: the IC50 against KDM4A was over 10 µM.

As for `CCN(CCN(C)C)C(=O)CNCc1cc(C(=O)O)ccn1` [KDOAM-20], the IC50 stood at 0.67 ± 0.23 µM on KDM4A, 1.4 ± 0.45 µM at KDM6B and 0.19 ± 0.081 µM at KDM4C.

As usually defined, the IC50 is the midpoint of a concentration-inhibition curve.
